Source: US11485742B2, “2-azaspiro[3.4]octane derivatives as M4 agonists” (NOVARTIS AG, priority 2019, dated 2022)

How the values were obtained:
[1] = target: T1, human cloned CHRM4 receptor (Homo sapiens, UniProt P08173); assay: CHRM4 Ca++ Flux Assay (M4_CHO cells, agonist mode); format: cell-based; details: for Emax: Percent Activity (PA), read-out: M4 FDSS PA %; for EC50: geometric mean if tested more than once, read-out: M4 FDSS EC50
T1 construct: expressed in transfected cells; host or cells: CHO-K1 (M4_CHO)
T1 sequence (P08173 1-479): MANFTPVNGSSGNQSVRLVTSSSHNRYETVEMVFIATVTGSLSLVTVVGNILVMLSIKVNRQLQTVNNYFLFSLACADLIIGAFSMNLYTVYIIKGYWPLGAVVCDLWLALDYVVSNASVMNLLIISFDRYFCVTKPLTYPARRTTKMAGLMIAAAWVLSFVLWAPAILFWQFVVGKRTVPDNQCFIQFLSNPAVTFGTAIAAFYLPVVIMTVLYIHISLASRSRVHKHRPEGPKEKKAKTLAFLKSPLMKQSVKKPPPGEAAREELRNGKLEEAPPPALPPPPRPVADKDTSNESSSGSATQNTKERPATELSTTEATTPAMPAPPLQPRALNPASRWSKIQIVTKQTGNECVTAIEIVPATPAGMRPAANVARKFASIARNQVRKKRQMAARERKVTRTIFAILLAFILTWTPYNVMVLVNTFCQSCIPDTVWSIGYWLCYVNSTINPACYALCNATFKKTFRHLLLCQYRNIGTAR
Procedure, shortened: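 CHO-K1 cells stably expressing human M4 were dye-loaded, then held 60 min at RT in Ca/Mg-free HBSS buffer with 20 μM ATP. Ca++ traces were recorded over 3 min after an 11-point compound series in triplicate, agonist mode, with a four-parameter fit. Percent activity is relative to the carbachol EC100; repeat tests are geometric means.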

[2] = target: T2, human cloned CHRM2 receptor (Homo sapiens, UniProt P08172); assay: CHRM2 Ca++ Flux Assay (M2_CHO cells, agonist mode); format: cell-based; details: M2 CHO cells; for EC50: agonist mode, geometric mean if tested more than once, read-out: M2 FDSS EC50; for Emax: Percent Activity (PA) measured to EC100 of Carbachol, read-out: M2 FDSS PA %
T2 construct: expressed in transfected cells; host or cells: CHO-K1 (M2_CHO)
T2 sequence (P08172 1-466): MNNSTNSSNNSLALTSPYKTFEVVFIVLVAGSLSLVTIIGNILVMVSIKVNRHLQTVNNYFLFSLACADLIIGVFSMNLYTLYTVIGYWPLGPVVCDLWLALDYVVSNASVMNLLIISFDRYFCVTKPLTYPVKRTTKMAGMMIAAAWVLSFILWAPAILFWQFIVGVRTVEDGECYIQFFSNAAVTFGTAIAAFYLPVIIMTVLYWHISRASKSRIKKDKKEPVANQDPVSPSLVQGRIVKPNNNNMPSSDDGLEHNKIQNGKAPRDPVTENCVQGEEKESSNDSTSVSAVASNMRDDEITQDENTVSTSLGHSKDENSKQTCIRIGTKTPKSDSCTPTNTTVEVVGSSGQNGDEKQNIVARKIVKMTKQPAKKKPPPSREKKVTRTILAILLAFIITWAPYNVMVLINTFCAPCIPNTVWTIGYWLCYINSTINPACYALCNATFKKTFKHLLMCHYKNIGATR
Procedure, shortened: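 CHO-K1 cells stably expressing human CHRM2 were plated overnight at 12K cells/well and loaded with Ca++ dye for 1–2 h. They were then held 60 minutes in HBSS −Ca/−Mg, 20 mM HEPES, 2.5 mM probenecid, 20 μM ATP. Agonist-mode Ca++ flux was read over 3 minutes. Four-parameter fits of triplicates gave percent activity relative to carbachol EC100.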

Row | Compound | Emax [1] | EC50 [1] | EC50 [2] | Emax [2]
1 | COc1ccc(F)cc1C1CCN([C@@H]2COC3(C2)CN(c2ncco2)C3)CC1 [Example 4I, (S)-7-(4-(5-fluoro-2-methoxyphenyl)piperidin-1-yl)-2-(oxazol-2-yl)-5-oxa-2-azaspiro[3.4]octane] | 73% | 19 nM | > 25 µM | 0%
2 | c1ccc(C2CCN([C@@H]3COC4(C3)CN(c3ncco3)C4)CC2)c(OC2CCOCC2)c1 [Example 4J, (S)-2-(oxazol-2-yl)-7-(4-(2-((tetrahydro-2H-pyran-4-yl)oxy)phenyl)piperidin-1-yl)-5-oxa-2-azaspiro[3.4]octane] | 82% | 30 nM | > 25 µM | 0%
3 | CC(C)(O)COc1ccc(F)cc1C1CCN([C@@H]2COC3(C2)CN(c2ncco2)C3)CC1 [Example 4K, (S)-1-(4-fluoro-2-(1-(2-(oxazol-2-yl)-5-oxa-2-azaspiro[3.4]octan-7-yl)piperidin-4-yl)phenoxy)-2-methylpropan-2-ol] | 66% | 25 nM | > 25 µM | 0%
4 | COCCOc1ccc(F)cc1C1CCN([C@@H]2COC3(C2)CN(c2ncco2)C3)CC1 [Example 4L, (S)-7-(4-(5-fluoro-2-(2-methoxyethoxy)phenyl)piperidin-1-yl)-2-(oxazol-2-yl)-5-oxa-2-azaspiro[3.4]octane] | 52% | 27 nM | > 25 µM | 0%
5 | c1ccc(C2CCN([C@@H]3COC4(C3)CN(c3ncco3)C4)CC2)c(OC2CC3(COC3)C2)c1 [Example 4M, (S)-7-(4-(2-((2-oxaspiro[3.3]heptan-6-yl)oxy)phenyl)piperidin-1-yl)-2-(oxazol-2-yl)-5-oxa-2-azaspiro[3.4]octane] | 82% | 86 nM | > 25 µM | 0%
6 | COc1ccccc1C1CCN([C@@H]2COC3(C2)CN(c2ncco2)C3)CC1 [Example 4N, (S)-7-(4-(2-methoxyphenyl)piperidin-1-yl)-2-(oxazol-2-yl)-5-oxa-2-azaspiro[3.4]octane] | 74% | 93 nM | > 25 µM | 0%
7 | Fc1cc(OCC2COC2)c(C2CCN([C@@H]3COC4(C3)CN(c3ncco3)C4)CC2)cc1F [Example 4O, (S)-7-(4-(4,5-difluoro-2-(oxetan-3-ylmethoxy)phenyl)piperidin-1-yl)-2-(oxazol-2-yl)-5-oxa-2-azaspiro[3.4]octane] | 58% | 7 nM | 12.7 µM | 31%
8 | Fc1cc(OCC2(F)COC2)c(C2CCN([C@@H]3COC4(C3)CN(c3ncco3)C4)CC2)cc1F [Example 4P, (S)-7-(4-(4,5-difluoro-2-((3-fluorooxetan-3-yl)methoxy)phenyl)piperidin-1-yl)-2-(oxazol-2-yl)-5-oxa-2-azaspiro[3.4]octane] | 63% | 5 nM | 10.5 µM | 28%
9 | Fc1cc(OC2COC2)c(C2CCN([C@@H]3COC4(C3)CN(c3ncco3)C4)CC2)cc1F [Example 4Q, (S)-7-(4-(4,5-difluoro-2-(oxetan-3-yloxy)phenyl)piperidin-1-yl)-2-(oxazol-2-yl)-5-oxa-2-azaspiro[3.4]octane] | 60% | 11 nM | 1.88 µM | 13%
10 | c1ccc(C2CCN([C@@H]3COC4(C3)CN(c3ncco3)C4)CC2)c(-c2cncnc2)c1 [Example 4R, (S)-2-(oxazol-2-yl)-7-(4-(2-(pyrimidin-5-yl)phenyl)piperidin-1-yl)-5-oxa-2-azaspiro[3.4]octane] | 70% | 3 nM | 0.203 µM | 12%
11 | Fc1ccc(C2CCN([C@@H]3COC4(C3)CN(c3ncco3)C4)CC2)c(OC2COC2)c1 [Example 4S, (S)-7-(4-(4-fluoro-2-(oxetan-3-yloxy)phenyl)piperidin-1-yl)-2-(oxazol-2-yl)-5-oxa-2-azaspiro[3.4]octane] | 74% | 21 nM | > 25 µM | 31%
